The results in this text go back to US10987293B2, “Composition for skin external application” (DR. RAYMOND LABORATORIES, INC., priority 2018, dated 2021).

In this series the test system is fertilized eggs of the zebrafish. In words: Developmental toxicity in zebrafish. Format: in vivo. The following applies: 1, 10, 100 μg/mL; 4 hours exposure; judged 24 and 48 hours after fertilization. Here is the method: 4. Confirmation of Presence of Developmental Toxicity in Zebrafish
In this case, a 1% DMSO aqueous solution that was a stock solution was used as the control material.
Specifically, each of the samples was prepared at concentrations of 1, 10, and 100 μg/mL using the stock solution. After each of the samples was adjusted to these concentrations, fertilized eggs of the zebrafish were exposed to each of the samples for 4 hours. 24 hours after fertilization (20 hours after the exposure to each of the samples) and 48 hours after fertilization (44 hours after the exposure to each of the samples), it was judged whether or not the samples were toxic overall. In this case, the toxicity was evaluated based on the indicators divided into eight categories (Normal Development; Death; Coagulated Egg; Necrotic Tissue; Eye Development Alteration; Edema (Pericardial Edema); Tail Formation; and General Retardation).
That is, it was confirmed that the serinol-based compound according to the present invention had no developmental toxicity.

Consider `CCCCCCCCCCCCCCCC(=O)NC(CO)CO` [palmitoyl serinol], for which the “developmental toxicity (development of fertilized eggs)” value is reported as “developed normally”.
